Where “and” joins values, the source holds several entries; their conditions need not be identical. Equal values may be shown once.
Assays:
Adenosine A2A receptor [1] = biological target: T1, Adenosine A2A receptor (Homo sapiens, UniProt P29274); assay: cAMP assay in 293A cells stably expressing the adenosine A2A receptor (CGS21680 stimulation, HTRF); type: cell-based; set-up: expressed in transfected cells; host or cells: 293A cells (Invitrogen, Cat# R705-07) infected with A2A-expressing lentivirus (custom packaged by Biosettia), puromycin selected; conditions: 0.1% BSA
T1 sequence (P29274 whole entry): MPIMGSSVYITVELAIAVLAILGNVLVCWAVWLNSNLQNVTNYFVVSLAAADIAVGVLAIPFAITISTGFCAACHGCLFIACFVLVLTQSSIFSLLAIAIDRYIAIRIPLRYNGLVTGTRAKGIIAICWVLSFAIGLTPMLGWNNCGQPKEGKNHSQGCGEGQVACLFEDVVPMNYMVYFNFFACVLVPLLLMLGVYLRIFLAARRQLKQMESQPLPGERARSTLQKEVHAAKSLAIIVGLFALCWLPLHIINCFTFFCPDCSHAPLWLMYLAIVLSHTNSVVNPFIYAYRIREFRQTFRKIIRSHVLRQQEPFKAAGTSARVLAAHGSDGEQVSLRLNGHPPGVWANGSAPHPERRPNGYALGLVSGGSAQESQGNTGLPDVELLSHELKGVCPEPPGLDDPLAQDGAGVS

Adenosine A2A receptor [2] = biological target: T1, Adenosine A2A receptor; assay: Adenosine A2A receptor competitive binding assay (Tag-lite HTRF); conditions: Tag-lite adenosine A2A receptor ligand binding
In short: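 Tag-lite HTRF competition: donor-labelled cells expressing human A2A were mixed with serially diluted compounds (DMSO 0.6% in dilutions) and red fluorescent A2A antagonist ligand (60 nM stock). Incubated 2 h at room temperature before HTRF readout.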

[3] = test system: p-CREB (phosphorylated cAMP response-element binding protein) in human whole blood; assay: p-CREB assay in human whole blood by flow cytometry (NECA stimulation, CD4 staining); type: cell-based; conditions: Homo sapiens
In short: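 Fresh human whole blood preincubated 1 h at room temperature with compounds (11-point 1:3 series from 30 uM) plus adenosine deaminase, then stimulated 30 min with NECA and Rolipram (10× additions of 50 uM stocks). Cells lysed/fixed, permeabilised, stained for p-CREB and CD4, read by flow cytometry.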

[4] = 293A-A2AR cells, 8 nM CGS, values separated by / are repeat determinations, read-out: cAMP (nM) 0.1% BSA, 8 nM CGS
[5] = 293A-A2AR cells, 1 uM CGS, values separated by / are repeat determinations, read-out: cAMP (nM) 0.1% BSA, 1 uM CGS
[6] = 2 h room temperature, values separated by / are repeat determinations
[7] = values separated by / are repeat determinations
[8] = 293A-A2AR cells, 8 nM CGS, read-out: cAMP (nM) 0.1% BSA, 8 nM CGS
[9] = 293A-A2AR cells, 1 uM CGS, read-out: cAMP (nM) 0.1% BSA, 1 uM CGS
[10] = 293A cells stably expressing A2A receptor, 1 uM CGS21680 stimulation, replicate values separated by /, read-out: cAMP (nM) 0.1% BSA, 1 uM CGS
[11] = replicate values separated by /

Row | SMILES | IC50 (Adenosine A2A receptor [1]; [4]) | IC50 (Adenosine A2A receptor [1]; [5]) | IC50 (Adenosine A2A receptor [2]; [6]) | IC50 [3, 7] | IC50 [3] | also measured
1 | CNS(=O)(=O)NCCOc1nc(N)nc(-c2ccccc2)c1-c1cc(C)nc(C(F)(F)F)c1 [Example 121] | 1.5 nM and 1.4 nM | 55 nM and 139 nM | 0.0039 µM | 478 nM | – | –
2 | Cc1cc(-c2c(OCCNS(N)(=O)=O)nc(N)nc2-c2ccc(F)cc2)cc(C(F)(F)F)n1 [Example 111] | 2.2 nM and 1.1 nM | – | 0.0041 µM | 1780 nM | – | –
3 | Cc1cc(-c2c(OCc3nccn3C(C)CO)nc(N)nc2-c2ccc(F)cc2)cc(C(F)F)n1 (centres unmarked) [Example 209, 2-(2-(((2-amino-5-(2-(difluoromethyl)-6-methylpyridin-4-yl)-6-(4-fluorophenyl)pyrimidin-4-yl)oxy)methyl)-1H-imidazol-1-yl)propan-1-ol] | – | – | – | – | 125 nM | IC50 (Adenosine A2A receptor [1]; [8]): 1.6 nM and 2.4 nM; IC50 (Adenosine A2A receptor [1]; [9]): 84 nM and 97 nM; IC50 (Adenosine A2A receptor [2]; HTRF): 0.0019 µM and 0.0042 µM
4 | CCc1c(COc2nc(N)nc(-c3ccc(F)cc3)c2-c2cc(C)nc(C(F)F)c2)nnn1C [Example 136, 5-(2-(difluoromethyl)-6-methylpyridin-4-yl)-4-((5-ethyl-1-methyl-1H-1,2,3-triazol-4-yl)methoxy)-6-(4-fluorophenyl)pyrimidin-2-amine] | 2.3 nM | 29 nM and 27 nM | 0.0006 µM and 0.0011 µM | 15.8 nM | – | –
5 | Cc1cc(-c2c(OCc3nccn3CCC(=O)O)nc(N)nc2-c2ccc(F)cc2)cc(C(F)F)n1 [Example 204, 3-(2-(((2-amino-5-(2-(difluoromethyl)-6-methylpyridin-4-yl)-6-(4-fluorophenyl)pyrimidin-4-yl)oxy)methyl)-1H-imidazol-1-yl)propanoic acid] | – | – | – | – | 456 nM | IC50 (Adenosine A2A receptor [1]; [8]): 24 nM; IC50 (Adenosine A2A receptor [2]; HTRF): 0.013 µM
6 | Cc1cc(-c2c(OCc3cccc(C(C)(C)O)n3)nc(N)nc2-c2ccc(F)cc2)cc(C(F)F)n1 [Example 225] | – | – | – | – | 15.1 nM | IC50 (Adenosine A2A receptor [1]; [9]): 136 nM and 200 nM and 176 nM; IC50 (Adenosine A2A receptor [2]; HTRF): 0.0181 µM
7 | Cc1cc(-c2c(OCCN(C)c3ccccn3)nc(N)nc2-c2ccc(F)cc2)cc(C(F)F)n1 [Example 79, 5-(2-(difluoromethyl)-6-methylpyridin-4-yl)-4-(4-fluorophenyl)-6-(2-(methyl(pyridin-2-yl)amino)ethoxy)pyrimidin-2-amine] | – | 1 nM | 0.00051 µM | 11.2 nM | – | –
8 | Cc1cc(-c2c(OCCN(C)c3cccc(OCCO)n3)nc(N)nc2-c2ccc(F)cc2)cc(C(F)F)n1 [Example 154, 2-((6-((2-((2-amino-5-(2-(difluoromethyl)-6-methylpyridin-4-yl)-6-(4-fluorophenyl)pyrimidin-4-yl)oxy)ethyl)(methyl)amino)pyridin-2-yl)oxy)ethan-1-ol] | 1.3 nM | 11 nM | 0.0014 µM and 0.0042 µM | 41.6 nM | – | –
9 | Cc1cc(-c2c(OCC3CCOCC3)nc(N)nc2-c2ccc(F)cc2)cc(C(F)F)n1 [Example 55, 5-(2-(difluoromethyl)-6-methylpyridin-4-yl)-4-(4-fluorophenyl)-6-((tetrahydro-2H-pyran-4-yl)methoxy)pyrimidin-2-amine] | 0.54 nM and 0.49 nM | 96 nM | 0.0007 µM and 0.0054 µM | 93 nM | – | –
10 | Cc1cc(-c2c(OCc3ccccn3)nc(N)nc2-c2ccc(F)cc2)cc(C(F)F)n1 [Example 95, 5-(2-(difluoromethyl)-6-methylpyridin-4-yl)-4-(4-fluorophenyl)-6-(pyridin-2-ylmethoxy)pyrimidin-2-amine] | – | 12 nM | 0.00024 µM | 14 nM | – | –
11 | CCc1c(COc2nc(N)nc(-c3ccc(F)cc3)c2-c2cc(C)nc(C(F)F)c2)nnn1CC [Example 135, 4-((1,5-diethyl-1H-1,2,3-triazol-4-yl)methoxy)-5-(2-(difluoromethyl)-6-methylpyridin-4-yl)-6-(4-fluorophenyl)pyrimidin-2-amine] | 3.1 nM and 2.6 nM | 77 nM | 0.0012 µM and 0.0043 µM | 93.2 nM | – | –
12 | Cc1cc(-c2c(OCc3nccn3CCCC(=O)O)nc(N)nc2-c2ccc(F)cc2)cc(C(F)F)n1 [Example 219, 4-(2-(((2-amino-5-(2-(difluoromethyl)-6-methylpyridin-4-yl)-6-(4-fluorophenyl)pyrimidin-4-yl)oxy)methyl)-1H-imidazol-1-yl)butanoic acid] | – | – | – | – | 170 nM | IC50 (Adenosine A2A receptor [2]; HTRF): 0.009 µM
13 | COCC(O)COc1nc(N)nc(-c2ccc(F)cc2)c1-c1cc(C)nc(C(F)F)c1 (centres unmarked) [Example 85, 1-((2-amino-5-(2-(difluoromethyl)-6-methylpyridin-4-yl)-6-(4-fluorophenyl)pyrimidin-4-yl)oxy)-3-methoxypropan-2-ol] | – | – | 0.0042 µM | 469 nM | – | –
14 | Cc1cc(-c2c(OCCn3ccccc3=O)nc(N)nc2-c2ccc(F)cc2)cc(C(F)F)n1 [Example 122, 1-(2-((2-amino-5-(2-(difluoromethyl)-6-methylpyridin-4-yl)-6-(4-fluorophenyl)pyrimidin-4-yl)oxy)ethyl)pyridin-2(1H)-one] | 0.88 nM and 0.69 nM | 35 nM and 53 nM | 0.0018 µM | 63 nM | – | –
15 | CCN(CC)C(=O)COc1nc(N)nc(-c2ccccc2)c1-c1cc(C)nc(C(F)(F)F)c1 [Example 3, 2-((2-amino-5-(2-methyl-6-(trifluoromethyl)pyridin-4-yl)-6-phenylpyrimidin-4-yl)oxy)-N,N-diethylacetamide] | 0.6 nM | 69 nM and 24 nM | – | 47 nM | – | –
16 | Cc1cc(-c2c(OCc3cccc(C4(C(=O)O)CC4)n3)nc(N)nc2-c2ccc(F)cc2)cc(C(F)F)n1 [Example 391, 1-(6-(((2-amino-5-(2-(difluoromethyl)-6-methylpyridin-4-yl)-6-(4-fluorophenyl)pyrimidin-4-yl)oxy)methyl)pyridin-2-yl)cyclopropane-1-carboxylic acid] | – | – | – | – | 602 nM | IC50 (Adenosine A2A receptor [1]; [9]): 1130 nM and 979 nM
17 | Cc1cc(-c2c(OCc3ccnc(OCCO)n3)nc(N)nc2-c2ccc(F)cc2)cc(C(F)F)n1 [Example 297, 2-((4-(((2-amino-5-(2-(difluoromethyl)-6-methylpyridin-4-yl)-6-(4-fluorophenyl)pyrimidin-4-yl)oxy)methyl)pyrimidin-2-yl)oxy)ethan-1-ol] | – | – | – | – | 521 nM | IC50 (Adenosine A2A receptor [1]; [9]): 278 nM and 228 nM
18 | Cc1cc(-c2c(OCc3ccnc(OC(CO)CO)n3)nc(N)nc2-c2ccc(F)cc2)cc(C(F)F)n1 [Example 434, 2-((4-(((2-amino-5-(2-(difluoromethyl)-6-methylpyridin-4-yl)-6-(4-fluorophenyl)pyrimidin-4-yl)oxy)methyl)pyrimidin-2-yl)oxy)propane-1,3-diol] | – | – | – | – | – | IC50 (Adenosine A2A receptor [1]; [10]): 346 nM and 290 nM; IC50 [3, 11]: 411 nM
19 | Cc1cc(-c2c(OCc3cccc([C@@H]4C[C@@H]4C(=O)O)n3)nc(N)nc2-c2ccc(F)cc2)cc(C(F)F)n1 (relative stereo) [Example 354, (1,2-cis)-2-(6-(((2-amino-5-(2-(difluoromethyl)-6-methylpyridin-4-yl)-6-(4-fluorophenyl)pyrimidin-4-yl)oxy)methyl)pyridin-2-yl)cyclopropane-1-carboxylic acid] | – | – | – | – | 549 nM | IC50 (Adenosine A2A receptor [1]; [9]): 563 nM and 977 nM
20 | Cc1cc(-c2c(OCCc3ccccn3)nc(N)nc2-c2ccc(F)cc2)cc(C(F)F)n1 [Example 313, 5-(2-(difluoromethyl)-6-methylpyridin-4-yl)-4-(4-fluorophenyl)-6-(2-(pyridin-2-yl)ethoxy)pyrimidin-2-amine] | – | – | – | – | 71.5 nM | IC50 (Adenosine A2A receptor [1]; [9]): 20 nM and 64 nM
21 | Cc1cc(-c2c(OCc3cccc(COC(N)=O)n3)nc(N)nc2-c2ccc(F)cc2)cc(C(F)F)n1 [Example 429, (6-(((2-amino-5-(2-(difluoromethyl)-6-methylpyridin-4-yl)-6-(4-fluorophenyl)pyrimidin-4-yl)oxy)methyl)pyridin-2-yl)methyl carbamate] | – | – | – | – | – | IC50 (Adenosine A2A receptor [1]; [10]): 59 nM and 43 nM; IC50 [3, 11]: 33 nM
